Like-named read-outs stand apart in the source and are kept apart here.
Experiment: Single escalating dose IV infusion pharmacokinetics in healthy volunteers (noncompartmental)
Assay type: in vivo, human
Conditions: human, plasma; for concentration at 24.5 h: read-out: concentration at 24.5 hours after the start of infusion; for concentration at 12.5 h: Time 12.50 h
Protocol: Forty-five subjects have enrolled in the study.
Analysis of plasma concentration versus time data for calculation of standard pharmacokinetic (PK) parameters following intravenous infusion administration was conducted using Phoenix WinNonlin version 6.3 using a nominal infusion duration and scheduled blood sampling times. Random subject numbers were assigned by the bioanalytical laboratory to retain the blind.
(§1) Analysis of plasma concentration versus time data for calculation of standard pharmacokinetic (PK) parameters following intravenous infusion administration was conducted using Phoenix WinNonlin version 6.3 using a nominal infusion duration and scheduled blood sampling times.
as §1

[1] = both sexes, iv, 48 mg/m2, Cohort 4, 48 mg/m^2 IV, r6-8=Subjects 1-3,r10=Mean,r12=Min,r13=Median,r14=Max,r16=Geometric Mean
[2] = both sexes, iv, 48 mg/m^2, Compound 1 Concentration, Cohort 4, 48 mg/m^2 IV, r7-9=Subjects 1-3,r11=Mean,r13=Min,r14=Median,r15=Max,r17=Geometric Mean
[3] = both sexes, iv, 96 mg/m^2, Cohort 5, 96 mg/m^2, 30-minute IV infusion, noncompartmental, subjects 1-6, Mean, Min, Median, Max, Geometric Mean
[4] = both sexes, iv, 96 mg/m^2, Compound 1 Concentration, Cohort 5, 96 mg/m^2 IV, r7-12=Subjects 1-6,r14=Mean,r16=Min,r17=Median,r18=Max,r20=Geometric Mean

`CN1CCN(c2ccc(Nc3ncc4cc5n(c4n3)C3(CCCCC3)CNC5=O)nc2)CC1` [Compound 1, 2′-((5-(4-methylpiperazin-1-yl)pyridin-2-yl)amino)-7′,8′-dihydro-6′H-spiro[cyclohexane-1,9′-pyrazino[1′,2′:1,5]pyrrolo[2,3-d]pyrimidin]-6′-one] gave a Cmax (both sexes, iv, 48 mg/m2, Cohort 4, 48 mg/m^2 IV, mean, read-out: Cmax averaged) of 224 ng/mL, a Tmax (both sexes, iv, 48 mg/m2, Cohort 4, 48 mg/m^2 IV, median, read-out: median Tmax) of 0.5 h and an AUC(0-t) [1] of 453 ng·h/mL. For the same compound, the MRT inf [1] was 8.08 h, the AUC(0-inf) (both sexes, iv, 48 mg/m2, Cohort 4, 48 mg/m^2 IV, r6-8=Subjects 1-3,r10=Mean,r12=Min,r13=Median,r14=Max,r16=Geometric Mean, read-out: AUCinf) was 499 ng·h/mL and the Cmax (both sexes, iv, 48 mg/m2, Cohort 4, 48 mg/m^2 IV, r6-8=Subjects 1-3,r10=Mean,r12=Min,r13=Median,r14=Max,r16=Geometric Mean, read-out: Cmax) was 224 ng/mL. For the same compound, the Tmax (both sexes, iv, 48 mg/m2, Cohort 4, 48 mg/m^2 IV, r6-8=Subjects 1-3,r10=Mean,r12=Min,r13=Median,r14=Max,r16=Geometric Mean, read-out: Tmax) was 0.417 h, the half-life (both sexes, iv, 48 mg/m2, Cohort 4, 48 mg/m^2 IV, range over subjects, read-out: Half-lives range) was 7.24 to 10.9 h and the concentration at 72 h (both sexes, iv, 48 mg/m^2, Cohort 4, 48 mg/m^2 IV, one subject measurable, read-out: concentration at 72 hours after the EOI) was 0.76 ng/mL. The concentration at 24.5 h (both sexes, iv, 48 mg/m^2, Cohort 4, 48 mg/m^2 IV, range over 3 subjects) was 2.08 to 4.66 ng/mL, the concentration at 0.25 h [2] was 192 ng/mL and the concentration at 0.75 h (both sexes, iv, 48 mg/m^2, Compound 1 Concentration, Cohort 4, 48 mg/m^2 IV, Time 0.75 h, r7-9=Subjects 1-3,r11=Mean,r13=Min,r14=Median,r15=Max,r17=Geometric Mean) was 107 ng/mL. The concentration at 1 h (both sexes, iv, 48 mg/m^2, Compound 1 Concentration, Cohort 4, 48 mg/m^2 IV, Time 1.00 h, r7-9=Subjects 1-3,r11=Mean,r13=Min,r14=Median,r15=Max,r17=Geometric Mean) was 81.9 ng/mL, the concentration at 2.5 h (both sexes, iv, 48 mg/m^2, Compound 1 Concentration, Cohort 4, 48 mg/m^2 IV, Time 2.50 h, r7-9=Subjects 1-3,r11=Mean,r13=Min,r14=Median,r15=Max,r17=Geometric Mean) was 34.2 ng/mL and the concentration at 3.5 h (both sexes, iv, 48 mg/m^2, Compound 1 Concentration, Cohort 4, 48 mg/m^2 IV, Time 3.50 h, r7-9=Subjects 1-3,r11=Mean,r13=Min,r14=Median,r15=Max,r17=Geometric Mean) was 27.6 ng/mL. The concentration at 6.5 h (both sexes, iv, 48 mg/m^2, Compound 1 Concentration, Cohort 4, 48 mg/m^2 IV, Time 6.50 h, r7-9=Subjects 1-3,r11=Mean,r13=Min,r14=Median,r15=Max,r17=Geometric Mean) was 17 ng/mL, the concentration at 8.5 h (both sexes, iv, 48 mg/m^2, Compound 1 Concentration, Cohort 4, 48 mg/m^2 IV, Time 8.50 h, r7-9=Subjects 1-3,r11=Mean,r13=Min,r14=Median,r15=Max,r17=Geometric Mean) was 12.1 ng/mL and the concentration at 12.5 h [2] was 8.36 ng/mL. The AUC(0-inf) (both sexes, iv, 96 mg/m2, Cohort 5, 96 mg/m^2 IV, mean, read-out: AUCinf averaged) was 1320 ng·h/mL, the Cmax (both sexes, iv, 96 mg/m2, Cohort 5, 96 mg/m^2 IV, mean, read-out: Cmax averaged) was 900 ng/mL and the half-life (both sexes, iv, 96 mg/m2, Cohort 5, 96 mg/m^2 IV, mean, read-out: Half-lives averaged (converted)) was 8.62 h. For the same compound, the Tmax (both sexes, iv, 96 mg/m2, Cohort 5, 96 mg/m^2 IV, median, read-out: median Tmax) was 0.375 h, the half-life (both sexes, iv, 96 mg/m2, Cohort 5, 96 mg/m^2 IV, range over subjects, read-out: Half-lives range) was 6.97 to 10.9 h and the AUC(0-t) [3] was 1530 ng·h/mL. For the same compound, the MRT inf [3] was 4.36 h, the AUC(0-inf) (both sexes, iv, 96 mg/m^2, Cohort 5, 96 mg/m^2, 30-minute IV infusion, noncompartmental, subjects 1-6, Mean, Min, Median, Max, Geometric Mean, read-out: AUCinf) was 1590 ng·h/mL and the Cmax (both sexes, iv, 96 mg/m^2, Cohort 5, 96 mg/m^2, 30-minute IV infusion, noncompartmental, subjects 1-6, Mean, Min, Median, Max, Geometric Mean, read-out: Cmax) was 949 ng/mL. For the same compound, the Tmax (both sexes, iv, 96 mg/m^2, Cohort 5, 96 mg/m^2, 30-minute IV infusion, noncompartmental, subjects 1-6, Mean, Min, Median, Max, Geometric Mean, read-out: Tmax) was 0.5 h, the half-life (both sexes, iv, 96 mg/m^2, Cohort 5, 96 mg/m^2, 30-minute IV infusion, noncompartmental, subjects 1-6, Mean, Min, Median, Max, Geometric Mean, read-out: t½ (converted)) was 7.11 h and the concentration at 24.5 h (both sexes, iv, 96 mg/m^2, Cohort 5, 96 mg/m^2 IV, range over subjects) was 3.96 to 9.59 ng/mL. The concentration at 0.25 h [4] was 843 ng/mL, the concentration at 0.5 h (both sexes, iv, 96 mg/m^2, Compound 1 Concentration, Cohort 5, 96 mg/m^2 IV, Time 0.50 h, r7-12=Subjects 1-6,r14=Mean,r16=Min,r17=Median,r18=Max,r20=Geometric Mean) was 992 ng/mL and the concentration at 12.5 h [4] was 11.9 ng/mL. It also gave a Tmax (both, intravenous, […]2, Cohort 6, […]^2, 0-24.5 hr data, noncompartmental, subjects 1-6, Mean, Min, Median, Max, Geometric Mean, read-out: Tmax) of 0.5 h, a Tmax (both, intravenous, […]2, Cohort 6, […]^2, 0-[…] data, noncompartmental, subjects 1-6, Mean, Min, Median, Max, Geometric Mean, read-out: Tmax) of 0.5 h and a half-life (both, intravenous, […]2, Cohort 7, […]^2, N = 12, Geo. Mean, read-out: t1/2 (converted)) of 14.5 h. It also gave a Tmax (both, intravenous, […]2, Cohort 7, […]^2, N = 12, Geo. Mean, read-out: tmax) of 0.36 h, a half-life (both, intravenous, […]2, Cohort 7, […]^2, N = 12, min-max, read-out: t1/2 (converted)) of 11.9 to 17.3 h and a Tmax (both, intravenous, […]2, Cohort 7, […]^2, N = 12, min-max, read-out: tmax) of 0.25 to 0.48 h. It also gave a half-life (both, intravenous, […]^2, Cohort 6 + 7, […]^2, N = 18, Geo. Mean, read-out: t1/2 (converted)) of 14.5 h, a Tmax (both, intravenous, […]^2, Cohort 6 + 7, […]^2, N = 18, Geo. Mean, read-out: tmax) of 0.37 h and a half-life (both, intravenous, […]^2, Cohort 6 + 7, […]^2, N = 18, min-max, read-out: t1/2 (converted)) of 11.9 to 17.3 h. For the same compound, the Tmax (both, intravenous, […]^2, Cohort 6 + 7, […]^2, N = 18, min-max, read-out: tmax) was 0.25 to 0.48 h, the half-life (both, iv, […]2, Cohort 6, […]^2 IV, 0-24.5 hr data, mean, read-out: Half-lives averaged (converted)) was 7.87 h and the half-life (both, iv, […]2, Cohort 6, […]^2 IV, 0-24.5 hr data, range over subjects, read-out: Half-lives range) was 5.78 to 8.79 h. The half-life (both, iv, […]2, Cohort 6, […]^2 IV, 0-[…] data, mean, read-out: Half-lives averaging (converted)) was 18 h, the half-life (both, iv, […]2, Cohort 6, […]^2 IV, 0-[…] data, range over subjects, read-out: Half-lives range) was 16.9 to 20.1 h and the Tmax (both, iv, […]2, Cohort 6, […]^2 IV, median, read-out: median Tmax) was 0.5 h.
